pEC50: −log10 of the molar value.
Molecular target: mGluR4 (UniProt Q14833)
Assay: mGluR4 potentiation assay: increase in response to an EC20 concentration of agonist (species not given)
Assay type: cell-based
Conditions: EC50 for potentiation of mGluR4; table does not state human or rat
Method: The disclosed compounds and compositions can be evaluated for their ability to act as a potentiator of metabotropic glutamate receptor activity, in particular mGluR4 activity, by any suitable known methodology known in the art. For example, Chinese Hamster Ovary (CHO) cells transfected with human mGluR4 or […] co-transfected with rat mGluR4 and the G-protein regulated Inwardly Rectifying Potassium channel (GIRK) were plated in clear bottom assay plates for assay in a Hamamatsu FDSS Fluorometric Plate Reader. The cells were loaded with either a Ca2+-sensitive fluorescent dye or the thallium responsive dye and the plates were washed and placed into a suitable kinetic plate reader. For human mGluR4 assays, a fluorescence baseline was established for 3-5 seconds, the disclosed compounds were then added to the cells, and the response in cells was measured. Approximately two and a half minutes later, a concentration of mGluR4 orthosteric agonist (e.g. glutamate or L-AP4) eliciting approximately 20% (EC20) of the maximal agonist response was added to the cells, and the response was measured. Two minutes later, a concentration of mGluR4 agonist (e.g. glutamate or L-AP4) eliciting 80% (EC80) of the maximal agonist response was added to the cells, and the response was measured. For rat mGluR4/GIRK experiments, a baseline was established for approximately five seconds, disclosed compounds were added, and either an EC20 or EC80 concentration of agonist was added approximately two and one half minutes later. Potentiation of the agonist response of mGluR4 by the disclosed compounds was observed as an increase in response to the EC20 concentration of agonist in the presence of compound compared to the response to agonist in the absence of compound. Similarly, antagonism of the agonist response of mGluR4 by the disclosed compounds was observed as a decrease in response to the EC80 concentration of agonist in the presence of compound compared to the response to agonist in the absence of compound.
The above described assay operated in two modes. In the first mode, a range of concentrations of the disclosed compounds are added to cells, followed by a single fixed concentration of agonist. If the compound acts as a potentiator, an EC50 value for potentiation and a maximum extent of potentiation by the compound at this concentration of agonist is determined by non-linear curve fitting. If the compound acts as a noncompetitive antagonist, an IC50 value is determined by non-linear curve fitting. In the second mode, several fixed concentrations of the disclosed compounds are added to various wells on a plate, followed by a range in concentrations of agonist for each concentration of disclosed compound. The EC50 values for the agonist at each concentration of compound are determined by non-linear curve fitting. A decrease in the EC50 value of the agonist with increasing concentrations of the sample compound (a leftward shift of the agonist concentration-response curve) is an indication of the degree of mGluR4 potentiation at a given concentration of the sample compound. A decrease in the maximal response of the agonist with increasing concentrations of the sample compounds, with or without a rightward shift in agonist potency, is an indication of the degree of noncompetitive antagonism at mGluR4. The second mode also indicates whether the sample compounds also affect the maximum response to mGluR4 to agonists.
These compounds are positive allosteric modulators (potentiators) of human and rat mGluR4 and were selective for mGluR4 compared to the other seven subtypes of metabotropic glutamate receptors.

pEC50	SMILES
7.02	Cn1nc(OCC2COC2)c2ccc(Nc3n[nH]c4cccnc34)cc21 [Example 195, N-[1-methyl-3-(oxetan-3-ylmethoxy)indazol-6-yl]-1H-pyrazolo[4,3-b]pyridin-3-amine]
7.70	Cn1nc(C2CC2)c2ccc(Nc3n[nH]c4nccnc34)cc21 [Example 4, N-(3-cyclopropyl-1-methyl-1H-indazol-6-yl)-1H-pyrazolo[3,4-b]pyrazin-3-amine]
6.30	Cn1nc(C(=O)N2CCC(F)(F)CC2)c2ccc(Nc3n[nH]c4cccnc34)cc21 [Example 162, (4,4-difluoro-1-piperidyl)-[1-methyl-6-(1H-pyrazolo[4,3-b]pyridin-3-ylamino)indazol-3-yl]methanone]
5.52	CC(C)Cn1nc(Cl)c2cc(Nc3n[nH]c4cccnc34)ccc21 [Example 274, N-(3-chloro-1-isobutyl-1H-indazol-5-yl)-1H-pyrazolo[4,3-b]pyridin-3-amine]
6.96	Cc1nn(CC2CCC2)c2ncc(Nc3n[nH]c4cccnc34)cc12 [Example 156, 1-(cyclobutylmethyl)-3-methyl-N-(1H-pyrazolo[4,3-b]pyridin-3-yl)pyrazolo[3,4-b]pyridin-5-amine]
< 5.00	Cn1nc(C2CC2)c2ccc(Nc3n[nH]c4c3CC(F)(F)CC4)cc21 [Example 14, 3-cyclopropyl-N-(5,5-difluoro-4,5,6,7-tetrahydro-1H-indazol-3-yl)-1-methyl-1H-indazol-6-amine]
6.58	Cc1nn(C2CCCC2)c2ccc(Nc3n[nH]c4cccnc34)cc12 [Example 74, N-(1-cyclopentyl-3-methyl-1H-indazol-5-yl)-1H-pyrazolo[4,3-b]pyridin-3-amine]
< 5.00	Cc1nn(C(C)C)c2ncc(Nc3n[nH]c4ncccc34)cc12 [Example 267, N-(1-isopropyl-3-methyl-1H-pyrazolo[3,4-b]pyridin-5-yl)-1H-pyrazolo[3,4-b]pyridin-3-amine]
6.89	Cc1cc(Cn2nc(C)c3cc(Nc4n[nH]c5ccccc45)ccc32)no1 [Example 78, N-(3-methyl-1-((5-methylisoxazol-3-yl)methyl)-1H-indazol-5-yl)-1H-indazol-3-amine]
6.36	CCC(F)(F)Cn1nc(C)c2cc(Nc3n[nH]c4ncccc34)ccc21 [Example 137, N-(1-(2,2-difluorobutyl)-3-methyl-1H-indazol-5-yl)-1H-pyrazolo[3,4-b]pyridin-3-amine]
7.14	c1cnc2c(Nc3ccc4[nH]ncc4c3)n[nH]c2c1 [Example 88, N-(1H-indazol-5-yl)-1H-pyrazolo[4,3-b]pyridin-3-amine]
< 5.00	CN1CCN(C(=O)c2nn(C)c3cc(Nc4n[nH]c5cccnc45)ccc23)CC1 [Example 166, (4-methylpiperazin-1-yl)-[1-methyl-6-(1H-pyrazolo[4,3-b]pyridin-3-ylamino)indazol-3-yl]methanone]
6.54	Cn1nc(C(=O)N2CCC(F)(F)C2)c2ccc(Nc3n[nH]c4cccnc34)cc21 [Example 172, (3,3-difluoropyrrolidin-1-yl)-[1-methyl-6-(1H-pyrazolo[4,3-b]pyridin-3-ylamino)indazol-3-yl]methanone]
6.58	COC(=O)CCCNc1nn(C)c2cc(Nc3n[nH]c4cccnc34)ccc12 [Example 38, methyl 4-((6-((1H-pyrazolo[4,3-b]pyridin-3-yl)amino)-1-methyl-1H-indazol-3-yl)amino)butanoate]
6.67	CC(c1nn(C)c2cc(Nc3n[nH]c4cccnc34)ccc12)C(F)(F)F (stereo not drawn) [Example 46, N-(1-methyl-3-(1,1,1-trifluoropropan-2-yl)-1H-indazol-6-yl)-1H-pyrazolo[4,3-b]pyridin-3-amine]
6.95	Cn1nc(OCC2CC2(F)F)c2ccc(Nc3n[nH]c4cccnc34)cc21 (stereo not drawn) [Example 188, N-[3-[(2,2-difluorocyclopropyl)methoxy]-1-methyl-indazol-6-yl]-1H-pyrazolo[4,3-b]pyridin-3-amine]
5.45	Cc1nn(CCCCN2CCCCC2)c2ccc(Nc3n[nH]c4cccnc34)cc12 [Example 283, N-(3-methyl-1-(4-(piperidin-1-yl)butyl)-1H-indazol-5-yl)-1H-pyrazolo[4,3-b]pyridin-3-amine]
7.29	Cc1cc(Cn2nc(C)c3cc(Nc4n[nH]c5cccnc45)ccc32)no1 [Example 76, N-(3-methyl-1-((5-methylisoxazol-3-yl)methyl)-1H-indazol-5-yl)-1H-pyrazolo[4,3-b]pyridin-3-amine]
7.11	Cc1nn(CCC(C)Cl)c2ccc(Nc3n[nH]c4cccnc34)cc12 (stereo not drawn) [Example 134, N-(1-(3-chlorobutyl)-3-methyl-1H-indazol-5-yl)-1H-pyrazolo[4,3-b]pyridin-3-amine]
6.53	[2H]C([2H])([2H])Oc1nn(C)c2cc(Nc3n[nH]c4cccnc34)ccc12 [Example 240, N-(3-(methoxy-d3)-1-methyl-1H-indazol-6-yl)-1H-pyrazolo[4,3-b]pyridin-3-amine]
5.80	Cn1nc(C(=O)N2CCOCC2)c2ccc(Nc3n[nH]c4cccnc34)cc21 [Example 167, [1-methyl-6-(1H-pyrazolo[4,3-b]pyridin-3-ylamino)indazol-3-yl]-morpholino-methanone]
6.84	Cc1nn(CC2CC(C(C)C)=NO2)c2ccc(Nc3n[nH]c4cccnc34)cc12 (stereo not drawn) [Example 120, N-(1-((3-isopropyl-4,5-dihydroisoxazol-5-yl)methyl)-3-methyl-1H-indazol-5-yl)-1H-pyrazolo[4,3-b]pyridin-3-amine]
< 4.52	Cc1nn(CCCO)c2ncc(Nc3n[nH]c4cccnc34)cc12 [Example 255, 3-[3-methyl-5-(1H-pyrazolo[4,3-b]pyridin-3-ylamino)pyrazolo[3,4-b]pyridin-1-yl]propan-1-ol]
5.47	Cc1nn(C(=O)C(F)(F)F)c2ccc(Nc3n[nH]c4nccnc34)cc12 [Example 138, 1-(5-((1H-pyrazolo[3,4-b]pyrazin-3-yl)amino)-3-methyl-1H-indazol-1-yl)-2,2,2-trifluoroethan-1-one]
< 5.00	Cc1c2cc(Nc3n[nH]c4cccnc34)ccc2nn1C(C)(C)C [Example 98, N-(2-(tert-butyl)-3-methyl-2H-indazol-5-yl)-1H-pyrazolo[4,3-b]pyridin-3-amine]
6.45	[2H]C([2H])(C)Oc1nn(C)c2cc(Nc3n[nH]c4cccnc34)ccc12 [Example 241, N-(3-(ethoxy-1,1-d2)-1-methyl-1H-indazol-6-yl)-1H-pyrazolo[4,3-b]pyridin-3-amine]
7.17	Clc1cc(Nc2n[nH]c3nccnc23)cc2cnn(CC3CCC3)c12 [Example 64, N-(7-chloro-1-(cyclobutylmethyl)-1H-indazol-5-yl)-1H-pyrazolo[3,4-b]pyrazin-3-amine]
7.07	Cn1ncc2cc(Nc3n[nH]c4cccnc34)cc(Cl)c21 [Example 63, N-(7-chloro-1-methyl-1H-indazol-5-yl)-1H-pyrazolo[4,3-b]pyridin-3-amine]
5.85	Cn1nc(N2CC(C)(C3CC3)CC2=O)c2ccc(Nc3n[nH]c4ccccc34)cc21 (stereo not drawn) [Example 41, 1-(6-((1H-indazol-3-yl)amino)-1-methyl-1H-indazol-3-yl)-4-cyclopropyl-4-methylpyrrolidin-2-one]
7.31	C=C(C)Cn1nc(C)c2cc(Nc3n[nH]c4cccnc34)ccc21 [Example 122, N-(3-methyl-1-(2-methylallyl)-1H-indazol-5-yl)-1H-pyrazolo[4,3-b]pyridin-3-amine]
